Measured values: US20140302027A1, “METHODS OF TREATING PERIODONTAL INFLAMMATION AND PERIODONTAL BONE LOSS” (United States of America as Represented by the Secretary, …, priority 2011, published 2014)

What was measured:
[1] = system: ligature-induced periodontal bone loss; assay: Ligature-induced periodontitis model, periodontal bone loss; format: in vivo, mice; details: for inhibition of induction of bone loss relative to no-treatment: 1 μg microinjected in gingiva daily (FIG. 26a)
Protocol: FIG. 26. Inhibition of bone loss by Del-1 and other treatments that block LFA-1 or IL-17. Ligature-induced periodontal bone loss was assessed in mice treated as follows: (a) 18-month-old (left) and 10-week-old mice (right) were microinjected in the gingiva with Del-1-Fc or Fc control (1 μg) or with anti-IL-17A mAb or isotype control (1 or 10 μg). (b) WT and Itgal^−/− mice received Del-1-Fc or Fc control as above. (c) LFA878 was locally administered at an equal molar concentration with Del-1-Fc (corresponding to 8.4 ng and 1 μg, respectively) or at the indicated higher doses. (d) Anti-LFA-1 or IgG2a control were microinjected at either 1 μg, as was Del-1-Fc, or at 10 μg. (e) Del-1-Fc, anti-LFA-1, anti-ICAM-1, ICAM-1-Fc and their controls were i.v. administered at 50 μg. Data are means±SD (n=5-6 mice per group) from one of two (a,c,e) or three (b,d) independent and representative experiments. Data represent % inhibition of bone loss, which was calculated using the formula: ([Bone loss in the absence of inhibitor−Bone loss in the presence of inhibitor]/Bone loss in the absence of inhibitor)×100. *P<0.05; **P<0.01. NS, not significant.
The ligature-induced periodontitis model was used to determine the efficacy of potential therapeutic interventions (see below). Specifically, bone loss was induced by tying a 5-0 silk ligature around the maxillary left second molar, placing the ligature in the gingival sulcus; this treatment induces bone loss in conventional (but not germ-free) mice due to massive bacterial accumulation in the ligated teeth (Graves (2008)). The contralateral molar tooth in each mouse was left unligated (baseline control). Bone loss was examined 5 days after placement of the ligatures, which remained in place in all mice during the experimental period. Using the VIA-170K system, bone measurements were performed on the ligated second molar (3 sites corresponding to mesial cusp, palatal groove, and distal cusp) and the affected adjacent regions (sites corresponding to distal cusp and distal groove of the first molar, and palatal cusp of the third molar). To calculate bone loss, the 6-site total CEJ-ABC distance for the ligated side of each mouse was subtracted from the 6-site total CEJ-ABC distance of the contralateral unligated side of the same mouse.
To determine its protective efficacy in ligature-induced periodontitis, Del-1 was used in the form of a fusion protein with the Fc region of human IgG1 (Del-1-Fc) (GenScript). Del-1-Fc (1 μg) was microinjected into the palatal gingiva of the ligated second maxillary molar, one day before placement of the ligature and every day thereafter until the day before sacrifice on day 5. In other experiments, Del-1-Fc was administered systemically by i.v. injection (50 μg), following the same timing schedule as above. The same protocols were used to determine the effect of local (or systemic) administration of mAbs to LFA-1 (clone M17/4, rat IgG2a; BioLegend), ICAM-1 (clone YN1, IgG2b; Biolegend), IL-17A (clone M210, rat IgG2a; Amgen), or IL-17F (clone 316016, rat IgG2a; R&D Systems). Recombinant mouse ICAM-1 fused to the Fc region of human IgG1 (ICAM-1-Fc) as well as an LFA-1 antagonist (LFA878; kindly provided by Novartis) (Weitz-Schmidt (2004)) were also used in bone loss inhibition experiments. Purified azide-free rat IgG2a or IgG2b (BioLegend) and recombinant human IgG1 Fc (R&D Systems) were used as controls for the mAbs and Del-1-Fc, respectively.

[2] = system: P. gingivalis (Pg)-induced bone loss; assay: P. gingivalis-induced periodontal bone loss mouse model; format: in vivo, mice; details: local gingival injections (FIG. 2C)
[3] = system: Del-1 expression in human endothelial cells; assay: Del-1 mRNA expression in HUVEC stimulated with human IL-17A; format: cell-based
From the text: FIG. 21. IL-17 downregulates Del-1 expression. (a) Gingival Del-1 mRNA expression in wild-type (WT) and IL17ra^−/− mice determined by qPCR. (b) Sagittal sections of interdental gingiva of WT and Il17ra^−/− mice were stained for Del-1; shown are representative fluorescent confocal images (upper row) and their overlays with corresponding DIC images (lower row). Bar, 50 μm; T, tooth; G, gingiva; S, sulcus. (c) The fluorescence intensities of these and additional representative images from independent mice (5 per group) were quantified using ImageJ analysis. (d) Anti-IL-17A mAb and IgG2a control were microinjected into the gingiva and Del-1 mRNA expression was determined by qPCR. (e) Gingival IL-17A mRNA expression was determined in young (8-10 weeks) and old (18 months) mice using qPCR. (f) Linear-regression analysis of Del-1 versus IL-17A expression in old mice. (g) Determination of Del-1 mRNA expression and MPO amounts in the gingiva of indicated BM chimeric mice (donor BM→lethally irradiated recipient). (h) HUVEC were stimulated with or without human IL-17A and Del-1 mRNA expression was quantified by qPCR (pooled data from four independent experiments). […]
Total RNA was extracted from excised gingival tissue or cultured cells using the PerfectPure RNA cell kit (5 Prime, Fisher) and quantified by spectrometry at 260 and 280 nm. […]

human neutrophils = assay: Transmigration assay of human neutrophils through HUVEC monolayer; format: cell-based; details: 5 μg/ml, towards IL-8 (20 ng/ml)
Protocol: FIG. 14. LFA-1 dependence of Del-1 deficiency-associated inflammation and bone loss. (a) Twenty-week-old C57BL/6 wild-type (WT) mice or mice deficient in the indicated molecules were assessed for bone loss relative to 5-week-old WT mice (zero baseline); the dotted line indicates the bone heights of 20-week-old WT mice for ease of comparison. (b) Sagittal sections of interdental gingiva from the same mice were stained for Ly6G; shown are representative overlays of DIC and fluorescent confocal images. (c) The fluorescence intensities of these and additional representative images from independent mice (5 per group) were quantified using ImageJ analysis. (d) Dissected gingiva from the indicated mice were processed for ELISA determination of MPO protein (left) or qPCR determination of PGRP1 transcript abundance (right). (e) Transmigration of human neutrophils through an endothelial cell monolayer (HUVEC) towards IL-8 (20 ng/ml) in the bottom well was determined with or without soluble human Del-1 (5 μg/ml), BSA (5 μg/ml), anti-LFA-1 mAb (10 μg/ml) or IgG1 control (10 μg/ml). […]
Transmigration assays were performed as previously described (Ley (2007)), using 6.5-mm Transwells with an 8-μm pore size (Corning). […] After 60 min incubation at 37° C., the number of transmigrated cells in the lower compartment was measured (Ley (2007)). […]

CC[C@H](C)C(=O)O[C@H]1C[C@@H](C)C=C2C=C[C@H](C)[C@H](CC[C@@H]3C[C@H](CC(=O)NC)N(Cc4ccc(O)c(OC)c4)C(=O)O3)[C@H]21 [LFA878, reference compound]
protection against bone loss compared with Del-1-Fc ([1]; local, equal molar amounts (8.4 ng vs 1 μg Del-1-Fc) (FIG. 26c)): less protective than Del-1-Fc | protection against bone loss compared with Del-1-Fc ([1]; locally administered at 1 μg (FIG. 26c)): almost (but not quite) comparable to Del-1-Fc

O=C(NCc1cccc(O)c1)c1cc(Cl)c(C(=O)N[C@@H](CNC(=O)c2cc(O)cc(O)c2)C(=O)O)c(Cl)c1 [XVA143]
P. gingivalis (Pg)-induced bone loss [2]: inhibited

Del-1-Fc: Del-1 as a fusion protein with the Fc region of human IgG1 (GenScript); SEQ ID NO: 5
inhibition of induction of bone loss relative to no-treatment ([1]; 10-week-old mice): ≈ 80% | inhibition of bone loss ([1]; 18-month old mice, microinjected in palatal gingiva daily from day -1 to day 4 (FIG. 7)): significant inhibition of bone loss | inhibition of induction of bone loss relative to no-treatment ([1]; 18-month-old mice): inhibited | effect against bone loss ([1]; Itgal−/− mice (LFA-1 deficient), local (FIG. 26b)): minor, but not statistically significant, effect | potency in inhibiting periodontal bone loss versus other LFA-1-ICAM-1 inhibitors ([1]; given locally or systemically): more potent

human IL-17A: human IL-17A cytokine used to stimulate HUVEC
Del-1 expression in human endothelial cells (HUVEC) [3]: inhibited

B1: human Del-1: soluble human Del-1 from R&D Systems; human Del-1 amino acid sequence SEQ ID NO: 1 (protein, listed as Homo sapiens)
chain: MKRSVAVWLLVGLSLSVPQFGKGDICDPNPCENGGICLPGLADGSFSCECPDGFTDPNCSSVVEVASDEEEPTSAGPCTPNPCHNGGTCEISEAYRGDTFIGYVCKCPRGFNGIHCQHNINECEVEPCKNGGICTDLVANYSCECPGEFMGRNCQYKCSGPLGIEGGIISNQQITASSTHRALFGLQKWYPYYARLNKKGLINAWTAAENDRWPWIQINLQRKMRVTGVITQGAKRIGSPEYIKSYKIAYSNDGKTWAMYKVKGTNEDMVFRGNIDNNTPYANSFTPPIKAQYVRLYPQVCRRHCTLRMELLGCELSGCSEPLGMKSGHIQDYQITASSIFRTLNMDMFTWEPRKARLDKQGKVNAWTSGHNDQSQWLQVDLLVPTKVTGIITQGAKDFGHVQFVGSYKLAYSNDGEHWTVYQDEKQRKDKVFQGNFDNDTHRKNVIDPPIYARHIRILPWSWYGRITLRSELLGCTEEE
LFA-1-dependent transendothelial migration of human neutrophils (human neutrophils): inhibited
